The nature of data set [1]: Permeability in human Caco2 cells. Format: ADME, cell-based. The following applies: caco-2.
Data set [2] has as its system Rattus norvegicus. The data set can be described thus: Antiinflammatory activity in ovalbumin induced Brown Norway rat assessed as reduction in eosinophil counts in lung lavage fluid at 240 microg/kg administered using nebulizer for 24 hrs prior to ovalbumin challenge measured after 48 hrs by flow cytometry. Format: functional, organism-based. The following applies: dose 240.0 µg/kg, time 72.0 hrs. (In flow cytometry, cells or beads pass a laser one at a time.)

Data set [3] in a line: Thermodynamic stability assessed as onset melting temperature. Format: physicochemical.
Data set [4] has as its target T1, Phosphatidylinositol 4,5-bisphosphate 3-kinase catalytic subunit delta isoform/gamma isoform (Homo sapiens) (UniProt P48736+O00329). The data set can be described thus: Inhibition of PI3kgamma/delta in anti-CD2/3/28-stimulated human PBMC cells derived from asthmatic patient assessed as reduction in IL-17 release pre-incubated for 1 hr followed by anti-CD2/3/28 stimulation measured after 24 hrs by flow cytometry. Format: cell-based. Conditions: time 25.0 hrs.

Data set [5] in a line: Apparent terminal half life in rat administered via inhalation. Format: ADME. Conditions: in vivo, inhaled or intranasal.
Data set [6] deals with T1, Phosphatidylinositol 4,5-bisphosphate 3-kinase catalytic subunit delta isoform/gamma isoform (Homo sapiens). Briefly: Inhibition of PI3kgamma/delta in eotaxin-3-stimulated human eosinophils derived from asthmatic patient assessed as reduction in CD11b expression pre-incubated for 30 mins followed by eotaxin-3 stimulation for 30 mins by flow cytometry. Format: tissue-based. Conditions: Eosinophil, time 60.0 min.

Data set [7] is described as follows: Half life in rat plasma at 0.5 mg/kg, iv. Format: ADME, organism-based.
Data set [8] in a line: Oral bioavailability in rat at 1.0 mg/kg. The following applies: in vivo. Format: ADME, organism-based.
Data set [9] concerns the target T2, Phosphatidylinositol 4,5-bisphosphate 3-kinase catalytic subunit delta isoform (Homo sapiens, UniProt O00329).
T2 sequence (O00329 whole entry): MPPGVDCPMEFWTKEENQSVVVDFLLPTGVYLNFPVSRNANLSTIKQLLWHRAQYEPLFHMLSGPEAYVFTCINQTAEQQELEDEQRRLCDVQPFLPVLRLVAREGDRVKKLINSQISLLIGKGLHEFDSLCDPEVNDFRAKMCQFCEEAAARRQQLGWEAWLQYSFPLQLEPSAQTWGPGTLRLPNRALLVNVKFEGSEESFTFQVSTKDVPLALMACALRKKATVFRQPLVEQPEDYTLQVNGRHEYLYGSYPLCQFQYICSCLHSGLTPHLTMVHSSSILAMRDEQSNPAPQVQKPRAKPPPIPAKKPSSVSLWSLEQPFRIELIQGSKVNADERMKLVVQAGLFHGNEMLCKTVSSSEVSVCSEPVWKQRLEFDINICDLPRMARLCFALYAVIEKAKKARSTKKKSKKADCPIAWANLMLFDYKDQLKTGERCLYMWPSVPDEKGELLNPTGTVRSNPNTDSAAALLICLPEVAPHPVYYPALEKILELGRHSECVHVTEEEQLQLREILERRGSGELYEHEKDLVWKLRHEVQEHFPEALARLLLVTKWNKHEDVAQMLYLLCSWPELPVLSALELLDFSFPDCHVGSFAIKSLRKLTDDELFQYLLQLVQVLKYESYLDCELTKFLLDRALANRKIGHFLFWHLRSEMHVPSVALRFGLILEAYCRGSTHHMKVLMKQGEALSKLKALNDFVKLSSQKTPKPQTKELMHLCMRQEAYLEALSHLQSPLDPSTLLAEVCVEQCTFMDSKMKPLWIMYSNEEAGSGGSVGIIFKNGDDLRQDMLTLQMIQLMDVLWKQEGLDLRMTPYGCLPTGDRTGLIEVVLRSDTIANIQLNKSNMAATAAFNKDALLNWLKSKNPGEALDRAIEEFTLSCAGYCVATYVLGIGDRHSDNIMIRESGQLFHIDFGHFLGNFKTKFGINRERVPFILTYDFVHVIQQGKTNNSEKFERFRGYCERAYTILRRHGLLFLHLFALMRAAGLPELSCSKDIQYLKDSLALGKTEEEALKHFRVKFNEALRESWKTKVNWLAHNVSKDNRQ
The data set can be described thus: Inhibition of PI3Kdelta in anti-IgM-stimulated human JeKo-1 cells assessed as inhibition of AKT phosphorylation at Ser473 residue incubated for 60 mins by TR-FRET assay. A general note: Time-resolved FRET reads energy transfer from a long-lived donor to a nearby acceptor.

Data set [10] is described as follows: Apparent permeability in human Caco2 cells. Format: ADME, cell-based. Conditions: caco-2. (Caco-2 cells form a polarised layer with tight junctions and transporters.)
A short description of data set [11]: Solubility of compound in at pH 7.4 at 1 mg/ml using crystalline form of sample incubated for 24 hrs by HPLC MS analysis. Format: physicochemical.
Data set [12] deals with Phosphatidylinositol 4-kinase alpha (Homo sapiens, UniProt P42356). Briefly: Inhibition of PI4KA (unknown origin) assessed as reduction in substrate phosphorylation by FRET Adapta assay.
Chain of Phosphatidylinositol 4-kinase alpha (P42356 whole entry, the tested form may be a part): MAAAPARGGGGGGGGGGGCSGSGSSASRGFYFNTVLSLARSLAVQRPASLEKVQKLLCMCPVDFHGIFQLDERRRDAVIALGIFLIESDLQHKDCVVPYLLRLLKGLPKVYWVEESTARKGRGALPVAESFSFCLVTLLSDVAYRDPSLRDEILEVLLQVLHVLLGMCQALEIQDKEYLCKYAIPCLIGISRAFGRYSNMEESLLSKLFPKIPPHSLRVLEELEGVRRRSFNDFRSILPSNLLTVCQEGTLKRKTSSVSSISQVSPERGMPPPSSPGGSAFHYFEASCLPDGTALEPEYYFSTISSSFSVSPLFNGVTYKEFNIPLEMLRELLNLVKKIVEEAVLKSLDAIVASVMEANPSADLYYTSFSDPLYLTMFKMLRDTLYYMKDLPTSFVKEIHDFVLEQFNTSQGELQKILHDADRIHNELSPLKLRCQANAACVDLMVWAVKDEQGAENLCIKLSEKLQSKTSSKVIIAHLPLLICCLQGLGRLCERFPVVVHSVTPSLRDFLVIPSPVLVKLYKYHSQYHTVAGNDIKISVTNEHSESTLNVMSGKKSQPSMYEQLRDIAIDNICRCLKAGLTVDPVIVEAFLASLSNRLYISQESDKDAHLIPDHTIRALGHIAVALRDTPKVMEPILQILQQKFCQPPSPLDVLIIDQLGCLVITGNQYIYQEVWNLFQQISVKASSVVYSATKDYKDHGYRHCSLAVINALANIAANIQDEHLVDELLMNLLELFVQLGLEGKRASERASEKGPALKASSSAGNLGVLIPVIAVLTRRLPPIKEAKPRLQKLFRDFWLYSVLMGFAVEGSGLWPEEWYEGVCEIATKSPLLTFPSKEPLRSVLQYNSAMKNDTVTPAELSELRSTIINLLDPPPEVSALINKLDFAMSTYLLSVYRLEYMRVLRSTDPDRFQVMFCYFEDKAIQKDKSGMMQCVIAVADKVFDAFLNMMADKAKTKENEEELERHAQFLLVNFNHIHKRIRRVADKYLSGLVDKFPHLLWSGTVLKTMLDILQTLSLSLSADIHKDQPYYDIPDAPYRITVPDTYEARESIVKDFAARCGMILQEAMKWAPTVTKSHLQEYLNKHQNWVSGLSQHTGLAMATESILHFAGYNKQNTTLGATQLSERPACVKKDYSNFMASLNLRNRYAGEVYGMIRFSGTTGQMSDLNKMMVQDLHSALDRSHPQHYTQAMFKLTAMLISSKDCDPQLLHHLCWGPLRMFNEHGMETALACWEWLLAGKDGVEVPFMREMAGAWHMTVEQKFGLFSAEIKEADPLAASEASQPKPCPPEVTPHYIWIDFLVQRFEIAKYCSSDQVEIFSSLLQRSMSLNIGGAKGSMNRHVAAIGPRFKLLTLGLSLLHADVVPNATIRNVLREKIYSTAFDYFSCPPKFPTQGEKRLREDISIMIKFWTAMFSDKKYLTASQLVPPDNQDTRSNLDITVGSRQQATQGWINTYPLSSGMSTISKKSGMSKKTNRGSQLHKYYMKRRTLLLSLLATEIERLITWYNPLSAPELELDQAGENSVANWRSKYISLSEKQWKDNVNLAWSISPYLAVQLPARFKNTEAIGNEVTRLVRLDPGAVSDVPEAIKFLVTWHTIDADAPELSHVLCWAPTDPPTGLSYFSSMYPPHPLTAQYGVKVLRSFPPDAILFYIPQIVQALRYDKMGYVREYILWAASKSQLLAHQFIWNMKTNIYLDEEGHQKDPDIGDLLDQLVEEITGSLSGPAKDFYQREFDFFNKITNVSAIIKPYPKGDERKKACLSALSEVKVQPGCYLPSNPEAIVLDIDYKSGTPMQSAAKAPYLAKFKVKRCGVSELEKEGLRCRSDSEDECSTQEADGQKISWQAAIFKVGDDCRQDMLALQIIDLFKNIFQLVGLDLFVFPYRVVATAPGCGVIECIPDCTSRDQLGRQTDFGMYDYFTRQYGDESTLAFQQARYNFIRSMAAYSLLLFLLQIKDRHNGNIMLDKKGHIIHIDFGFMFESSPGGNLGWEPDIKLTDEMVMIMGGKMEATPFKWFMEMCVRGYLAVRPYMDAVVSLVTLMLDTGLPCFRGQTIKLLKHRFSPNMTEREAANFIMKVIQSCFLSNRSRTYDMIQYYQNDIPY
The target in data set [13] is Phosphatidylinositol 4-phosphate 3-kinase C2 domain-containing subunit beta (Homo sapiens, UniProt O00750). The data set can be described thus: Inhibition of PIK3C2B (unknown origin) assessed as reduction in substrate phosphorylation by FRET Adapta assay.
Data set [14] concerns the target Phosphatidylinositol 4-kinase beta (Homo sapiens, UniProt Q9UBF8). The data set can be described thus: Inhibition of PI4KB (unknown origin) assessed as reduction in substrate phosphorylation by FRET Adapta assay.
For data set [15], the target named is Phosphatidylinositol 4,5-bisphosphate 3-kinase catalytic subunit alpha isoform (Homo sapiens, UniProt P42336). Briefly: Inhibition of recombinant human PI3Kalpha assessed as reduction in ADP production using Dic8-PIP2 as substrate pre-treated for 15 mins followed by substrate addition measured after 60 mins by ADP-glo assay.
Data set [16] is described as follows: Clearance in rat at 0.5 mg/kg, iv. Format: ADME, organism-based. Conditions: in vivo.
For data set [17], the target named is Phosphatidylinositol 4,5-bisphosphate 3-kinase catalytic subunit gamma isoform (Mus musculus, UniProt Q9JHG7). Briefly: Inhibition of PI3Kgamma in C5a-stimulated mouse RAW 264 cells assessed as inhibition of AKT phosphorylation at Ser473 residue Pretreated for 15 mins followed by C5a stimulation measured after 3 mins by HTRF assay. Format: cell-based.
Chain of Phosphatidylinositol 4,5-bisphosphate 3-kinase catalytic subunit gamma isoform (Q9JHG7 whole entry, the tested form may be a part, canonical isoform): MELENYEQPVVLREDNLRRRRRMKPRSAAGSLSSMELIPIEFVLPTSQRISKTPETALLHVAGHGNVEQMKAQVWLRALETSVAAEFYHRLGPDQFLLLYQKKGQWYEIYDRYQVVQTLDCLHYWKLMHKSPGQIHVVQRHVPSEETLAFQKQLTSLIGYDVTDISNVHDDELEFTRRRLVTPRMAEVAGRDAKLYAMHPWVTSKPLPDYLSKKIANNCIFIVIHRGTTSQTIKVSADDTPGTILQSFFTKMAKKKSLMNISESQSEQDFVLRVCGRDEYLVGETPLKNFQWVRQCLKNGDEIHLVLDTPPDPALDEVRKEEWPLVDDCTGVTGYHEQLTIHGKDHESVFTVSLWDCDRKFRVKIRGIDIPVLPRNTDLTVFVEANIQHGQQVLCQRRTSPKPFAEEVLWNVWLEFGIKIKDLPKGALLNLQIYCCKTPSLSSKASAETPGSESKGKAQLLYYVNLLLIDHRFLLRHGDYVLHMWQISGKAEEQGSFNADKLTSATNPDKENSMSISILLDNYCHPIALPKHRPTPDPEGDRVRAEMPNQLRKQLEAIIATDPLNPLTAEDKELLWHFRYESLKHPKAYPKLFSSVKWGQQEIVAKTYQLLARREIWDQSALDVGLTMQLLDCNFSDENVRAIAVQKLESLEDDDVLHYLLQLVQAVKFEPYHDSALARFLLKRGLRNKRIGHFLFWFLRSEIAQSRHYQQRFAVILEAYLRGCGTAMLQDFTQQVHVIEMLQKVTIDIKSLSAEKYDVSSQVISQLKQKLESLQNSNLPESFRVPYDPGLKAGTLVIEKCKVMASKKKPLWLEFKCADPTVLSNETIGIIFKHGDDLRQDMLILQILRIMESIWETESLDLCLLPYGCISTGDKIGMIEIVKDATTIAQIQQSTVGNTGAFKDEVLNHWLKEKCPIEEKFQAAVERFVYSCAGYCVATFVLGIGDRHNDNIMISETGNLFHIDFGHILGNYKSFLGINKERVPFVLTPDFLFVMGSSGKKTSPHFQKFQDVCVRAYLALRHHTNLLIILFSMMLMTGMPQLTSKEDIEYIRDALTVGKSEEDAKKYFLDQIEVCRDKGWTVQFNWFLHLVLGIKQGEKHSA
For data set [18], the target named is Phosphatidylinositol 4-phosphate 3-kinase C2 domain-containing subunit alpha (Homo sapiens, UniProt O00443). The data set can be described thus: Inhibition of PIK3C2A (unknown origin) assessed as reduction in substrate phosphorylation by FRET Adapta assay.
Data set [19] has as its system Rattus norvegicus. The data set can be described thus: Antiinflammatory activity in ovalbumin-induced Brown Norway rat assessed as reduction in eosinophil counts in bronchoalveolar lavage at 240 microg/kg inhaled using nebulizer 7 hrs prior to ovalbumin challenge measured after 48 hrs by flow cytometry. Conditions: dose 240.0 µg/kg, time 55.0 hrs. Format: functional, organism-based.

Data set [20] can be described thus: Distribution coefficient, logD of compound at pH 7.4. Conditions: octanol/water. Format: physicochemical.
The target in data set [21] is Phosphatidylinositol 3-kinase catalytic subunit type 3 (Homo sapiens, UniProt Q8NEB9). The data set can be described thus: Inhibition of PIK3C3 (unknown origin) assessed as reduction in substrate phosphorylation by FRET Adapta assay.
Data set [22] in a line: Volume of distribution at steady state in rat at 0.5 mg/kg, iv. Conditions: in vivo, read-out: Vdss. Format: ADME, organism-based.

≈ marks a conversion by molar mass, not a printed value. Calls of active or inactive are those of the source. A value given as a limit tells only on which side of the number the result lay.

In general, half-life refers to the time needed for the level to fall by half in the phase considered. For orientation: bioavailability means the share of a dose that reaches the circulation, judged against a reference dose that is usually intravenous. A high value points to good availability. The term IC50 denotes the point on the concentration scale where inhibition reaches its midpoint. As a reminder, the thermodynamic solubility is the concentration in solution at equilibrium with solid. As usually defined, the clearance is the volume of plasma or blood freed of the substance per unit of time. In general, logD refers to lipophilicity at a set pH, counting ionised and neutral species. High values mean higher lipophilicity, low ones lower lipophilicity.

T1 sequence (P48736 whole entry, looked up, one chain of several, canonical isoform): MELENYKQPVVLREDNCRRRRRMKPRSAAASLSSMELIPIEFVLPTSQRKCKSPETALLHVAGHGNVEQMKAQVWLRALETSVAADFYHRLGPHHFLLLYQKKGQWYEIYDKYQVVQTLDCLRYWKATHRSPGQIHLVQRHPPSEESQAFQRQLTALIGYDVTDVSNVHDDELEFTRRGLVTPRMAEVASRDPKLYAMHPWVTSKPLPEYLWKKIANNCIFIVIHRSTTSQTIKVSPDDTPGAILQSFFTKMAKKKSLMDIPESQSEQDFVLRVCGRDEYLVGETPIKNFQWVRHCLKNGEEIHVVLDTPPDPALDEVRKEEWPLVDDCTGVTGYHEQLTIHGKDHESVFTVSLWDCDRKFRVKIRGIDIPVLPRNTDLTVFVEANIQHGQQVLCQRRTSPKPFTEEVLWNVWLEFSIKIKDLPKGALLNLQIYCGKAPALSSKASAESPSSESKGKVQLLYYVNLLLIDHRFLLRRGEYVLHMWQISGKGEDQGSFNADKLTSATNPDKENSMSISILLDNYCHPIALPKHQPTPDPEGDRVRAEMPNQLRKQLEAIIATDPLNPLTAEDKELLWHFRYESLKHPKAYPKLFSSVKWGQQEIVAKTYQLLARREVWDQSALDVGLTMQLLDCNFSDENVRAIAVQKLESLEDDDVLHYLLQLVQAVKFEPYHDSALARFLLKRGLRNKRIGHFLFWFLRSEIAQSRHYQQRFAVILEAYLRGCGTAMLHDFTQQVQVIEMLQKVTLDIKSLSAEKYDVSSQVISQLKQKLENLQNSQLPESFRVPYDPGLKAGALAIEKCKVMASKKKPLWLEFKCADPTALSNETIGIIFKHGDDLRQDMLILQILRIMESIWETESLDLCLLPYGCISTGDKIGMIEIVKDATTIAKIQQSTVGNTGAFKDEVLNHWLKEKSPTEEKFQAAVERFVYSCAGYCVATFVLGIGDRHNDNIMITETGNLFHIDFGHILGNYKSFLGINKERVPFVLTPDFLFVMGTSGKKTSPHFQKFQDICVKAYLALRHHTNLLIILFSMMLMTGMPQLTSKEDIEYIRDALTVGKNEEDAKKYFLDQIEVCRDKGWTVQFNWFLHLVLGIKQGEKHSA
Chain of Phosphatidylinositol 4-kinase beta (Q9UBF8 whole entry, canonical isoform): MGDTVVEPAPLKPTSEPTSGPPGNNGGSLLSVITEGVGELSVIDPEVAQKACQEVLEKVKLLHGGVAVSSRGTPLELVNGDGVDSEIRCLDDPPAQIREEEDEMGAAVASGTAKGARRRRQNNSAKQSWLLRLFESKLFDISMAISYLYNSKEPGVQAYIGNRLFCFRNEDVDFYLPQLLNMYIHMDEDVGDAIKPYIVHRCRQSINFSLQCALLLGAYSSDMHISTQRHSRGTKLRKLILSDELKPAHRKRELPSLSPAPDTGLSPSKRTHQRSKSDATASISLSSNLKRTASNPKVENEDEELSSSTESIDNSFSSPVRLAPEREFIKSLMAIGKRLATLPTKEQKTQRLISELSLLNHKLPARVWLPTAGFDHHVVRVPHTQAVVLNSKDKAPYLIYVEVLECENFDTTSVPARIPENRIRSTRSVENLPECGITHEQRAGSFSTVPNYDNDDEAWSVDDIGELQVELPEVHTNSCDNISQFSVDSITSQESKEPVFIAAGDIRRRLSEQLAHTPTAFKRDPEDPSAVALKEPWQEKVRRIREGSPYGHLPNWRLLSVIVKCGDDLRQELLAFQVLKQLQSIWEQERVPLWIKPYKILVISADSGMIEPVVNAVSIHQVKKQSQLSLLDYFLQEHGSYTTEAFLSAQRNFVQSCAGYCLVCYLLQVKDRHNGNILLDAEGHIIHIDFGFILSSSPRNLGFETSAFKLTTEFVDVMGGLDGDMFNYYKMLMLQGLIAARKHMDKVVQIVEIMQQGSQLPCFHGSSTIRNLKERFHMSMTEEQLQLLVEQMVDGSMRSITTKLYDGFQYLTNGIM

In the case of `Cc1nc(Nc2cccc(N3CCCC3=O)n2)sc1-c1cc2c(c(S(C)(=O)=O)c1)C(=O)N([C@@H](C)C1CC1)C2` [AZD-8154], in data set [1], the permeability entry is “Permeable”. Besides, in the data set with Rattus norvegicus [2], the outcome was inactive. In addition, in data set [3], the Tm came to 285 °C. The result (in data set [4]; in data set [6]; in the data set with Rattus norvegicus [19]) was Active. Besides, the results for the half-life in [5] and in data set [7] were 7.1 h and 2.9 h, respectively. In addition, the bioavailability in data set [8] was less than 4%. The half-maximal inhibitory concentration (IC50) in [9] was 3.98 nM; in data set [12], greater than 10000 nM; in data set [13], 3.16 nM; in [14], 3160 nM; in data set [15] it was 63.1 nM; in data set [17], 0.794 nM. Also, the IC50 was 3980 nM in data set [18] and 501 nM in [21]. Moreover, the Papp result in data set [10] is “Impermeable”. This compound also yielded a thermodynamic solubility at 24 h in data set [11] of 0.054 µM (≈ 0.0298 µg/mL). This compound also registered a clearance in data set [16] of 20 mL/min/kg. Besides, in data set [20], the log distribution coefficient (logD) was determined as 4.4. The Vd in data set [22] came out at 4 L/kg.

The values above are taken from ChEMBL document CHEMBL5029145, “Discovery of AZD8154, a Dual PI3Kγδ Inhibitor for the Treatment of Asthma” (J Med Chem, 2021).
